Source: US11198713B2, “Agents modulating beta-catenin functions and methods thereof” (FOG PHARMACEUTICALS, INC., priority 2017, dated 2021)

biological target: T1, full-length beta-catenin (Axin site) (Homo sapiens, UniProt P35222); assay: Competition fluorescence polarization assay (Axin site probe); format: binding; details: competition fluorescence polarization, Table 2; read-out: in vitro FP EC50
T1 construct: 15 nM full-length beta-catenin, 20 nM FITC labeled peptide in buffer
T1 sequence (P35222 1-781): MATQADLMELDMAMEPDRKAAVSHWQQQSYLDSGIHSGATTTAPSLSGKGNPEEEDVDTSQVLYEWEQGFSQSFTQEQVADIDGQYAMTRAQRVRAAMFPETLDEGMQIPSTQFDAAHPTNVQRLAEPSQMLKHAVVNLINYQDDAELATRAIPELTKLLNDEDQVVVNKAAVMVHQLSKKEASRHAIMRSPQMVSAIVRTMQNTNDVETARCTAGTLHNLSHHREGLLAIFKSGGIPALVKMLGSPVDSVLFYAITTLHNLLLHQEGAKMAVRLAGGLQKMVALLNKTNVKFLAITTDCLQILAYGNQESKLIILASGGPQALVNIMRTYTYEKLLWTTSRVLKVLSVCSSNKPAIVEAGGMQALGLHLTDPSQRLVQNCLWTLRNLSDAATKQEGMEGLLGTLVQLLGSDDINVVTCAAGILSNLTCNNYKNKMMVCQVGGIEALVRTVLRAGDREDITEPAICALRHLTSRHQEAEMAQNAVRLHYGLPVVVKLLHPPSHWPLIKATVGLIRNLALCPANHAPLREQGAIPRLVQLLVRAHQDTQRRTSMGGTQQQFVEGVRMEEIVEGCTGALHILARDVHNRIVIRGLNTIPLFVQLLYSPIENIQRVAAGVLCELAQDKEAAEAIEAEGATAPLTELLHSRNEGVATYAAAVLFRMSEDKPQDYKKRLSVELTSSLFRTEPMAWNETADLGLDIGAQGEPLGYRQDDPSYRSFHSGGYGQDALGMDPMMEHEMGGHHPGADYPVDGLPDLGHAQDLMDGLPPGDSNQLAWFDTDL
How it was run: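 Competition FP: 15 nM full-length β-catenin pre-incubated 5 min with 20 nM FITC-labelled stapled Axin-site peptide, then titrated peptide added (3-fold series from 5 μM) for 15 min in the dark. Buffer 50 mM Tris pH 8.0, 250 mM NaCl, 2% glycerol, 0.5 mM EDTA; duplicate reads.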

Row | Compound | EC50 [nM]
1 | CC[C@H](C)[C@@H]1NC(=O)[C@](C)(NC(=O)[C@H](CCC(N)=O)NC(=O)[C@@H]2CCCN2C(C)=O)CCCN(C)CC=CCCC[C@](C)(C(=O)N[C@@H](Cc2c[nH]cn2)C(=O)N[C@H](C(=O)N[C@@H](CCCNC(=N)N)C(=O)N[C@@H](CCCNC(=N)N)C(=O)N[C@H](C(=O)N[C@@H](Cc2c[nH]c3ccccc23)C(=O)N[C@@H](CCCNC(=N)N)C(N)=O)C(C)C)C(C)C)NC(=O)[C@H](CC(=O)O)NC(=O)[C@H](CC(C)C)NC1=O (single isomer, unassigned) [FP0783a, Ac-P-Q-MI-I-L-D-R5-H-V-R-R-V-W-R-NH2] | 500 to 5000
2 | CC[C@H](C)[C@@H]1NC(=O)[C@](C)(NC(=O)[C@H](CCC(N)=O)NC(=O)[C@@H]2CCCN2C(C)=O)CCCCC=CCOC(=O)N2CC(C(=O)N[C@@H](Cc3c[nH]cn3)C(=O)N[C@H](C(=O)N[C@@H](CCCNC(=N)N)C(=O)N[C@@H](CCCNC(=N)N)C(=O)N[C@H](C(=O)N[C@@H](Cc3c[nH]c4ccccc34)C(=O)N[C@@H](CCCNC(=N)N)C(N)=O)C(C)C)C(C)C)(C2)NC(=O)[C@H](CC(=O)O)NC(=O)[C@H](CC(C)C)NC1=O (single isomer, unassigned) [FP0735c, Ac-P-Q-R6-I-L-D-MA-H-V-R-R-V-W-R-NH2] | 500 to 5000
3 | CC[C@H](C)[C@@H]1NC(=O)[C@H](Cc2ccccn2)NC(=O)[C@H](C)NC(=O)[C@H](CC(=O)O)NC(=O)[C@H](CC(C)C)NC(=O)[C@H]([C@@H](C)CC)NC(=O)[C@](C)(NC(=O)[C@H](C)NC(C)=O)CCCCCCC=CCOC(=O)N2CC[C@@](C(=O)N[C@@H](CC3CC3)C(=O)N[C@H](C(=O)N[C@@H](Cc3c[nH]c4ccccc34)C(N)=O)C(C)C)(C2)NC1=O (single isomer, unassigned) [FP0574c Isomer 2, Ac-A-R8-I-L-D-A-2pyr-I-MB-cpa-V-W-NH2] | > 5000
4 | CC[C@H](C)[C@@H]1NC(=O)[C@H](Cc2c[nH]cn2)NC(=O)[C@H](C)NC(=O)[C@H](CC(=O)O)NC(=O)[C@H](CC(C)C)NC(=O)[C@H]([C@@H](C)CC)NC(=O)[C@](C)(NC(=O)[C@H](C)NC(C)=O)CCCN(C)C(=O)OCC=CCCC[C@@](C)(C(=O)N[C@@H](CCCNC(=N)N)C(=O)N[C@H](C(=O)N[C@@H](Cc2c[nH]c3ccccc23)C(N)=O)C(C)C)NC1=O (single isomer, unassigned) [FP0506c Isomer 1, Ac-A-MI-I-L-D-A-H-I-S5-R-V-W-NH2] | 100 to 500
5 | CC[C@H](C)[C@@H]1NC(=O)[C@H](Cc2c[nH]cn2)NC(=O)[C@H](C)NC(=O)[C@H](CC(=O)O)NC(=O)[C@H](CC(C)C)NC(=O)[C@H]([C@@H](C)CC)NC(=O)[C@](C)(NC(=O)[C@H](C)NC(C)=O)CCCN(C)C(=O)OCC=CCCC[C@@](C)(C(=O)N[C@@H](CCCNC(=N)N)C(=O)N[C@H](C(=O)N[C@@H](Cc2c[nH]c3ccccc23)C(N)=O)C(C)C)NC1=O (single isomer, unassigned) [FP0506c Isomer 2, Ac-A-MI-I-L-D-A-H-I-S5-R-V-W-NH2] | < 100
6 | CC[C@H](C)[C@@H]1NC(=O)[C@H](Cc2c[nH]cn2)NC(=O)[C@H](C)NC(=O)[C@H](CC(=O)O)NC(=O)[C@H](CC(C)C)NC(=O)[C@H]([C@@H](C)CC)NC(=O)[C@](C)(NC(=O)[C@H](C)NC(C)=O)CCCCCCC=CCOC(=O)N2CC[C@@](C(=O)N[C@@H](C)C(=O)N[C@H](C(=O)N[C@@H](Cc3c[nH]c4ccccc34)C(N)=O)C(C)C)(C2)NC1=O [FP0410c, Ac-A-R8-I-L-D-A-H-I-MB-A-V-W-NH2] | 100 to 500
7 | CC[C@H](C)[C@@H]1NC(=O)C2(NC(=O)[C@H](CCC(N)=O)NC(=O)[C@@H]3CCCN3C(C)=O)CN(C2)C(=O)OCC=CCCC[C@@](C)(C(=O)N[C@@H](Cc2c[nH]cn2)C(=O)N[C@H](C(=O)N[C@@H](CCCNC(=N)N)C(=O)N[C@@H](CCCNC(=N)N)C(=O)N[C@H](C(=O)N[C@@H](Cc2c[nH]c3ccccc23)C(=O)N[C@@H](CCCNC(=N)N)C(N)=O)C(C)C)C(C)C)NC(=O)[C@H](CC(=O)O)NC(=O)[C@H](CC(C)C)NC1=O (single isomer, unassigned) [FP0724c, Ac-P-Q-MA-I-L-D-S5-H-V-R-R-V-W-R-NH2] | 500 to 5000
8 | CC[C@H](C)[C@@H]1NC(=O)[C@H](Cc2c[nH]cn2)NC(=O)[C@H](C)NC(=O)[C@H](CC(=O)O)NC(=O)[C@H](CC(C)C)NC(=O)[C@H]([C@@H](C)CC)NC(=O)[C@](C)(NC(=O)[C@H](C)NC(C)=O)CCCCCC=CCOC(=O)N(C)C[C@@](C)(C(=O)N[C@@H](CCCNC(=N)N)C(=O)N[C@H](C(=O)N[C@@H](Cc2c[nH]c3ccccc23)C(N)=O)C(C)C)NC1=O [FP0495c, Ac-A-R7-I-L-D-A-H-I-MD-R-V-W-NH2] | 100 to 500
9 | CC[C@H](C)[C@@H]1NC(=O)[C@H](Cc2ccccn2)NC(=O)[C@H](C)NC(=O)[C@H](CC(=O)O)NC(=O)[C@H](CC(C)C)NC(=O)[C@H]([C@@H](C)CC)NC(=O)[C@](C)(NC(=O)[C@H](C)NC(C)=O)CCCCCCC=CCOC(=O)N2CC[C@@](C(=O)N[C@@H](Cc3cccs3)C(=O)N[C@H](C(=O)N[C@@H](Cc3c[nH]c4ccccc34)C(N)=O)C(C)C)(C2)NC1=O (single isomer, unassigned) [FP0571c Isomer 2, Ac-A-R8-I-L-D-A-2pyr-I-MB-thi-V-W-NH2] | > 5000
10 | CC[C@H](C)[C@@H]1NC(=O)[C@H](Cc2c[nH]cn2)NC(=O)[C@H](C)NC(=O)[C@H](CC(=O)O)NC(=O)[C@H](CC(C)C)NC(=O)[C@H](C)NC(=O)[C@](C)(NC(=O)[C@H](C)NC(C)=O)CCCCCCC=CCOC(=O)N2CC[C@@](C(=O)N[C@@H](CCCNC(=N)N)C(=O)N[C@H](C(=O)N[C@@H](Cc3c[nH]c4ccccc34)C(N)=O)C(C)C)(C2)NC1=O [FP0405c, Ac-A-R8-A-L-D-A-H-I-MB-R-V-W-NH2] | 500 to 5000
11 | CC[C@H](C)[C@@H]1NC(=O)[C@H](Cc2cccnc2)NC(=O)[C@H](C)NC(=O)[C@H](CC(=O)O)NC(=O)[C@H](CC(C)C)NC(=O)[C@H]([C@@H](C)CC)NC(=O)[C@](C)(NC(=O)[C@H](C)NC(C)=O)CCCCCCC=CCOC(=O)N2CC[C@@](C(=O)N[C@@H](CCCNC(=N)N)C(=O)N[C@H](C(=O)N[C@@H](Cc3c[nH]c4ccccc34)C(N)=O)C(C)C)(C2)NC1=O [FP0537c, Ac-A-R8-I-L-D-A-3pyr-I-MB-R-V-W-NH2] | > 5000

same assay, conditions: competition with FITC labeled Axin-site probe, 15 nM full-length beta-catenin; read-out: FP EC50

Row | Compound | EC50 [nM]
12 | CC[C@H](C)[C@@H]1NC(=O)[C@](C)(NC(=O)[C@H](CCC(N)=O)NC(=O)[C@@H]2CCCN2C(C)=O)CCCC=CCN(C)CC[C@](C)(C(=O)N[C@@H](Cc2c[nH]cn2)C(=O)N[C@H](C(=O)N[C@@H](CCCNC(=N)N)C(=O)N[C@@H](CCCNC(=N)N)C(=O)N[C@H](C(=O)N[C@@H](Cc2c[nH]c3ccccc23)C(=O)N[C@@H](CCCNC(=N)N)C(N)=O)C(C)C)C(C)C)NC(=O)[C@H](CC(=O)O)NC(=O)[C@H](CC(C)C)NC1=O (single isomer, unassigned) [FP-0776, Ac-P-Q-R5-I-L-D-RdN-H-V-R-R-V-W-R-NH2] | 580
13 | CC[C@H](C)[C@@H]1NC(=O)[C@@]2(NC(=O)[C@H](CCC(N)=O)NC(=O)[C@@H]3CCCN3C(C)=O)CCN(C2)C(=O)OCC=CCCCC[C@](C)(C(=O)N[C@@H](Cc2c[nH]cn2)C(=O)N[C@H](C(=O)N[C@@H](CCCNC(=N)N)C(=O)N[C@@H](CCCNC(=N)N)C(=O)N[C@H](C(=O)N[C@@H](Cc2c[nH]c3ccccc23)C(=O)N[C@@H](CCCNC(=N)N)C(N)=O)C(C)C)C(C)C)NC(=O)[C@H](CC(=O)O)NC(=O)[C@H](CC(C)C)NC1=O (single isomer, unassigned) [FP-0745c, Ac-P-Q-PR-I-L-D-R6-H-V-R-R-V-W-R-NN2] | 110
